The test system of one assay is Male ob/ob mice. Description: In vivo ob/ob mouse study: 22 days oral q.d., glucose, OGTT, plasma insulin, body weight. To be noted: for Body Weight / Fed Glucose / Plasma Insulin: 22 days; for Blood Glucose AUC during OGTT: OGTT day 18, glucose 0.5 g/kg. As for the experimental part: The mice were allowed ad libitum access to water and chow (commercially supplied diet). […] On the first morning, the mice were grouped as noted above and fed glucose. […] Body weight, food intake and fed blood glucose levels were measured weekly. An oral glucose tolerance test (OGTT) was conducted on the mice on day 18, after overnight fasting. […] Following completion of the study, final body weight and blood glucose level of were collected and the mice in each group was sacrificed to collect blood for biochemistry analysis, including fed blood glucose levels, fasted blood glucose levels, blood glucose levels during OGTT, plasma insulin and body weight change.

For assay [1], the system named is Male C57BL/6 mice (high fat diet, Steptozotocin). The assay can be described thus: In vivo mouse study: high fat diet / STZ C57BL/6 mice, 3 weeks oral treatment, fed and fasted glucose, OGTT. The note with it: for Fed Glucose / Fed Glucose (% relative to the Vehicle): 3 weeks; for Blood Glucose AUC during OGTT / Blood Glucose AUC during OGTT (% relative to the Vehicle): glucose 2 g/kg; for Fasted Glucose / Fasted Glucose (% relative to the Vehicle): overnight fast from day 18. The text has this: All the mice were then kept on a high fat diet for another 3 weeks. […] At the start of the pre-dose period, each mouse was assigned a predose number, which was indicated on its cage card. After assignment to dosage groups, each mouse was assigned a unique study identification number (which will be indicated on its cage card) and identified by permanent marker on its tail. Mice were housed 5 mice per cage in stainless steel cages. […] The temperature and humidity ranges will be monitored by a hygrothermograph. Mice were fed ad libitum (except where noted) with high-fat diet prepared in Southern University. Water was provided ad libitum by water bottles. The quarantine period was 5 days. The test compound or vehicle was administered orally by gavage. The dosage levels were chosen to represent a range of exposures with pharmacology effects. […] The mice were randomly divided into six testing group of 10 mice per group. Each group was treated for 3 weeks, via oral administration, with one of the following regimens: (a) vehicle; […] On Day 1 (the first day of dosing), dosing at all dose levels was initiated. All groups were then dosed for 20 additional days. The following pharmacological parameters were measured during and at the end of this study: […] The following morning, a basal fasted blood glucose level was determined. […] Food was replaced after the last time point of blood glucose measurement. The pharmacological significance of any findings was determined based on statistical analysis and historical control data. Statistical analyses were performed utilizing GraphPadPRISM.

Where [2] appears, read: Metformin HCl 250 mg/kg P.O. q.d.

The structures appear in SMILES notation. Structures can show the parent of a compound that is named as a salt.

Regarding `CN(C)C(=N)N=C(N)N` [Metformin HCl, metformin hydrochloride, reference compound], in the assay on Male ob/ob mice (setting [2]), the “Fasted Glucose” value turned out to be 166 ± 16 mg/dL, the “Body Weight” value is given as 52 ± 0.9 g, the “Fed Glucose” value is on record as 371 ± 35 mg/dL and the “Plasma Insulin” value stood at 48.4 ± 2.0 ng/dL. In addition, in the assay with Male ob/ob mice (setting [2]), the “Blood Glucose AUC during OGTT” value was 91 ± 9 mg/dL * 2 h.

As to `Cc1ccc([C@@H]2O[C@H](CO)[C@@H](O)[C@H](O)[C@H]2O)cc1Cc1ccc(-c2ccc(F)cc2)s1` [Cmpd (I-X)], in the assay with Male ob/ob mice (10 mg/kg), the “blood glucose levels (result in words)” value is recorded as “significantly reduced” and the “glucose excursion during OGTT (result in words)” value is “improved”. Besides, in the assay with Male ob/ob mice (Cmpd (I-X) 1 mg/kg P.O. q.d.), the “Fasted Glucose” value is 159 ± 12 mg/dL, the “Body Weight” value is given as 53 ± 0.8 g, the “Fed Glucose” value is listed as 312 ± 34 mg/dL and the “Plasma Insulin” value is given as 46.3 ± 3.5 ng/dL. Further, the “Blood Glucose AUC during OGTT” value in the assay with Male ob/ob mice (Cmpd (I-X) 1 mg/kg P.O. q.d.) worked out at 80 ± 4 mg/dL * 2 h. In the assay with Male ob/ob mice (Cmpd (I-X) 10 mg/kg P.O. q.d.), the “Fasted Glucose” value stood at 86 ± 4 mg/dL, the “Body Weight” value turned out to be 54 ± 0.8 g, the “Fed Glucose” value came to 254 ± 22 mg/dL and the “Plasma Insulin” value worked out at 44.0 ± 3.6 ng/dL. Moreover, in the assay with Male ob/ob mice (Cmpd (I-X) 10 mg/kg P.O. q.d.), the “Blood Glucose AUC during OGTT” value is 48 ± 3 mg/dL * 2 h.

Regarding `OC[C@H]1O[C@@H](c2ccc(Cl)c(Cc3ccc(-c4ccc(F)nc4)s3)c2)[C@H](O)[C@@H](O)[C@@H]1O` [Cmpd (I-Y)], in assay [1] (Cmpd (I-Y) 1 mg/kg oral), the “Fed Glucose” value is listed as 360.7 ± 15.7 mg/dL, the “Fed Glucose (% relative to the Vehicle)” value is 86% ± 4%, the “Blood Glucose AUC during OGTT” value came out at 31562 ± 1447 mg/dL * 2 h and the “Blood Glucose AUC during OGTT (% relative to the Vehicle)” value is on record as 85% ± 4%. In assay [1] (Cmpd (I-Y) 1 mg/kg oral), the “Fasted Glucose” value was determined as 77.8 ± 4.9 mg/dL and the “Fasted Glucose (% relative to the Vehicle)” value is listed as 89.4% ± 5.7%. Also, in assay [1] (Cmpd (I-Y) 10 mg/kg oral), the “Fed Glucose” value is on record as 290.5 ± 24.8 mg/dL, the “Fed Glucose (% relative to the Vehicle)” value is 69% ± 6%, the “Blood Glucose AUC during OGTT” value was found to be 25209 ± 894 mg/dL * 2 h and the “Blood Glucose AUC during OGTT (% relative to the Vehicle)” value is 68% ± 2%. In assay [1] (Cmpd (I-Y) 10 mg/kg oral), the “Fasted Glucose” value amounted to 66.9 ± 3.1 mg/dL and the “Fasted Glucose (% relative to the Vehicle)” value is 76.9% ± 3.6%.

Turning to `CN(C)C(=N)N=C(N)N` [Metformin, reference compound], in assay [1] (Metformin 500 mg/kg oral), the “Fed Glucose” value is reported as 345.4 ± 28.4 mg/dL, the “Fed Glucose (% relative to the Vehicle)” value is given as 82% ± 7%, the “Blood Glucose AUC during OGTT” value was 34023 ± 1618 mg/dL * 2 h and the “Blood Glucose AUC during OGTT (% relative to the Vehicle)” value was 92% ± 4%. In assay [1] (Metformin 500 mg/kg oral), the “Fasted Glucose” value amounted to 74.7 ± 3.8 mg/dL and the “Fasted Glucose (% relative to the Vehicle)” value is 85.9% ± 4.4%. In the assay with Male ob/ob mice (250 mg/kg), the “effect on blood glucose control (result in words)” value is recorded as “did not have an effect”.

Values taken from US11576894B2, “Combination therapy for the treatment of diabetes” (Janssen Pharmaceutica N.V., priority 2009, dated 2023).
